In brackets after ≈: the same amount, converted by molar mass. Activity calls are given as the source filed them. No cut-off for these calls is given here.
Key:
Candida albicans [1] = assay: Antifungal activity against fluconazole-resistant Candida albicans 904 assessed as reduction in EFG1 expression at 16 ug/ml incubated for 12 hrs by RT-PCR analysis; format: functional, organism-based; conditions: dose 16.0 µg/ml
Candida albicans [2] = assay: Antifungal activity against fluconazole-resistant Candida albicans 901 assessed as fungal growth inhibition by CLSI based microdilution method; format: functional
Candida albicans [3] = assay: Antifungal activity against fluconazole-resistant Candida albicans 904 assessed as reduction in ALS3 expression at 16 ug/ml incubated for 12 hrs by RT-PCR analysis; format: functional, organism-based; conditions: dose 16.0 µg/ml
[4] = Subacute toxicity in KM mouse assessed as mortality at 100 mg/kg administered via gavage daily for 14 days; format: organism-based; conditions: in vivo, po, 336 h, time 14 day
Candida parapsilosis = assay: Antifungal activity against Candida parapsilosis assessed as fungal growth inhibition by CLSI based microdilution method; format: functional; conditions: Lodderomyces parapsilosis
Pichia kudriavzevii = assay: Antifungal activity against Pichia kudriavzevii assessed as fungal growth inhibition by CLSI based microdilution method; format: functional
Candida albicans [5] = assay: Antifungal activity against fluconazole-resistant Candida albicans 904 infected in ICR mouse assessed as reduction in fungal kidney burden by measuring CFU administered intraperitoneally measured after 5 days; format: functional, organism-based; conditions: dose 0.6 mg/kg, route ip, time 5.0 day
[6] = molecular target: T1, Lanosterol 14-alpha demethylase (Candida albicans (strain SC5314 / ATCC MYA-2876) (Yeast), UniProt P10613); assay: Inhibition of CYP51 in Candida albicans SC5314 assessed as increase in eburicol level at 0.03125 ug/ml incubated for 24 hrs by GC-MS analysis; conditions: at 0.03125 µg/mL
T1 sequence (P10613 whole entry): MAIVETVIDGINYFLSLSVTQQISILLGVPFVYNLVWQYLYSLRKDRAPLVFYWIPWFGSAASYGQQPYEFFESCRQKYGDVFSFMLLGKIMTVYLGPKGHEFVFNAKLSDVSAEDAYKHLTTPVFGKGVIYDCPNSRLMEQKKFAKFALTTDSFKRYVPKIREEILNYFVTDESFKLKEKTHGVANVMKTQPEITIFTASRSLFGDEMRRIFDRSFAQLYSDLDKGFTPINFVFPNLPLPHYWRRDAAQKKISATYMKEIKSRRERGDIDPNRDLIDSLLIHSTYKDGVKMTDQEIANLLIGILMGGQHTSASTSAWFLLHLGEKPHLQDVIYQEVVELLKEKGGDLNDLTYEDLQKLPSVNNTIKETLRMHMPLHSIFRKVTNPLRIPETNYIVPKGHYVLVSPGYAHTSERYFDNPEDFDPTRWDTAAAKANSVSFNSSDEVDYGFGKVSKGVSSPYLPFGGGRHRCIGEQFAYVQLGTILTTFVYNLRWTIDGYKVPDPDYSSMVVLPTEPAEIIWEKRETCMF

Candida albicans [7] = assay: Antifungal activity against Candida albicans SC5314 assessed as destruction of cell membrane at 16 ug/ml incubated for 24 hrs by TEM analysis; format: functional, organism-based; conditions: dose 16.0 µg/ml
Candida albicans [8] = assay: Antifungal activity against fluconazole-resistant Candida albicans 904 assessed as inhibition of yeast to hypha morphological transition at 16 ug/ml incubated for 4 hrs by inverted microscopy; format: functional, organism-based; conditions: dose 16.0 µg/ml
Candida albicans [9] = assay: Antifungal activity against Candida albicans CPCC400616 assessed as reduction in CPH1 expression at 2 ug/ml incubated for 12 hrs by RT-PCR analysis; format: functional, organism-based; conditions: dose 2.0 µg/ml
Candida albicans [10] = assay: Antifungal activity against fluconazole-resistant Candida albicans 904 assessed as decrease in ERG11 expression at 16 ug/ml measured after 16 hrs by RT-PCR analysis; format: functional, organism-based; conditions: dose 16.0 µg/ml
[11] = Subacute toxicity in male KM mouse assessed as focal infiltration of lymphocytes in kidney at 100 mg/kg administered via gavage daily for 7 days; format: organism-based; conditions: in vivo, po, 168 h, time 7 day
Candida albicans [12] = assay: Antifungal activity against fluconazole-resistant Candida albicans 904 assessed as decrease in CDR2 expression at 16 ug/ml measured after 16 hrs by RT-PCR analysis; format: functional, organism-based; conditions: dose 16.0 µg/ml
Candida albicans [13] = assay: Antifungal activity against fluconazole-resistant Candida albicans 904 assessed as fungal growth inhibition by CLSI based microdilution method; format: functional
[14] = Acute toxicity in fasted KM mouse assessed as body weight change at 1000 mg/kg administered via gavage measured for 7 days; format: organism-based; conditions: in vivo, po, 168 h, time 7 day
Candida albicans [15] = assay: Antifungal activity against Candida albicans CPCC400616 assessed as fungal growth inhibition by CLSI based microdilution method; format: functional
[16] = molecular target: T1, Lanosterol 14-alpha demethylase; assay: Inhibition of CYP51 in Candida albicans SC5314 assessed as increase in lanosterol level at 0.03125 ug/ml incubated for 24 hrs by GC-MS analysis; conditions: at 0.03125 µg/mL
Candida albicans [17] = assay: Antifungal activity against Candida albicans SC5314 assessed as leakage of endogenous material within cells at 16 ug/ml incubated for 24 hrs by TEM analysis; format: functional, organism-based; conditions: dose 16.0 µg/ml
[18] = Stability in mouse plasma assessed as half life at 1 uM measured for 180 mins by LC-MS/MS analysis; format: ADME, cell-free
Cytochrome P450 2C19 = Cytochrome P450 2C19 (Homo sapiens, UniProt P33261); assay: Inhibition of CYP2C19 in human liver microsomes using […] as substrate preincubated for 5 mins followed by NADPH addition by LC-MS/MS analysis; format: ADME, Microsome
Sequence of Cytochrome P450 2C19 (P33261 whole entry): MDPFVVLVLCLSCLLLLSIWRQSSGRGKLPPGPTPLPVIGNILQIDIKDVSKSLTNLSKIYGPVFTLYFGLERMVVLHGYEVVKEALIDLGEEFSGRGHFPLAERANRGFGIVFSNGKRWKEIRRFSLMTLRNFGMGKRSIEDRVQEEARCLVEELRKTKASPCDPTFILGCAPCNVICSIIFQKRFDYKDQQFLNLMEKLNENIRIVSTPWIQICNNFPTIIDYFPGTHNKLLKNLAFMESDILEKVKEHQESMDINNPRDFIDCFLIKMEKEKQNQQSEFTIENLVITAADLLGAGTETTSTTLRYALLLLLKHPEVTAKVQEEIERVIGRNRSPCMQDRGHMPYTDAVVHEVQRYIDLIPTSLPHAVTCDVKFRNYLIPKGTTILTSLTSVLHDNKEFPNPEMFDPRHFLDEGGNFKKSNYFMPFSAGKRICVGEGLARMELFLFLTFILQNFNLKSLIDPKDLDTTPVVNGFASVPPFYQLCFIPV

Candida albicans [19] = assay: Antifungal activity against Candida albicans SC5314 infected in ICR mouse assessed as reduction in fungal kidney burden by measuring CFU at 0.6 mg/kg, ip measured after 5 days; format: functional, organism-based; conditions: time 5.0 day
[20] = Subacute toxicity in female KM mouse assessed as kidney damage at 100 mg/kg administered via gavage daily for 14 days; format: organism-based; conditions: in vivo, po, 336 h, time 14 day
Candida albicans [21] = assay: Antifungal activity against fluconazole-resistant Candida albicans 632 assessed as fungal growth inhibition by CLSI based microdilution method; format: functional
Candida albicans [22] = assay: Antifungal activity against fluconazole-resistant Candida albicans 17# assessed as fungal growth inhibition by CLSI based microdilution method; format: functional
Candida albicans [23] = assay: Antifungal activity against Candida albicans CPCC400616 assessed as inhibition of yeast to hypha morphological transition at 2 ug/ml incubated for 4 hrs by inverted microscopy; format: functional, organism-based; conditions: dose 2.0 µg/ml
Candida albicans [24] = assay: Antifungal activity against Candida albicans SC5314 assessed as destruction of cell wall at 16 ug/ml incubated for 24 hrs by TEM analysis; format: functional, organism-based; conditions: dose 16.0 µg/ml

With `O=c1ccc2ccc(COC(Cn3ccnc3)c3ccc(Cl)cc3Cl)cc2o1` (configuration not stated) the Activity (Candida albicans [1]) was “Active”, the MIC (Candida albicans [2]) was 4 µg/mL (≈ 9.63 µM) and the Activity (Candida albicans [3]) was “Active”. For the same molecule, the Activity [4] was “Non-Toxic”, the MIC (Candida parapsilosis) was 0.5 µg/mL (≈ 1.2 µM) and the MIC (Pichia kudriavzevii) was 2 µg/mL (≈ 4.82 µM). The Activity (Candida albicans [5]) was “Dose-Dependent Effect”, the “inhibition (INH)” value [6] was “Active” and the Activity (Candida albicans [7]) was “Active”. The inhibition (Candida albicans [8]) was “Active”, the Activity (Candida albicans [9]) was “Active” and the Activity (Candida albicans [10]) was “Active”. The Activity [11] was “Toxic”, the Activity (Candida albicans [12]) was “Active” and the MIC (Candida albicans [13]) was 1 µg/mL (≈ 2.41 µM). The Activity [14] was “Non-Toxic”, the MIC (Candida albicans [15]) was 0.06 µg/mL (≈ 0.144 µM) and the “inhibition (INH)” value [16] was “Active”. The Activity (Candida albicans [17]) was “Active”, the half-life at 1 µM [18] was greater than 6 h and the IC50 (Cytochrome P450 2C19) was 227 nM. For the same molecule, the Activity (Candida albicans [19]) was “Active”, the Activity [20] was “Non-Toxic” and the MIC (Candida albicans [21]) was 4 µg/mL (≈ 9.63 µM). For the same molecule, the MIC (Candida albicans [22]) was 4 µg/mL (≈ 9.63 µM), the inhibition (Candida albicans [23]) was “Active” and the Activity (Candida albicans [24]) was “Active”.
